Measurements from patent US20250002507A1, “7,8-DIHYDRO-5H-1,6-NAPHTHYRIDINE DERIVATIVES AS POSITIVE ALLOSTERIC MODULATORS OF THE MUSCARINIC ACETYLCHOLINE RECEPTOR M4 FOR TREATING NEUROLOGICAL AND PSYCHIATRIC DISORDERS” (Vanderbilt University, priority 2021, published 2025).

Target: T1, Human M4 (Homo sapiens, UniProt P08173)
T1 construct: expressed in transfected cells
T1 sequence (P08173 1-479): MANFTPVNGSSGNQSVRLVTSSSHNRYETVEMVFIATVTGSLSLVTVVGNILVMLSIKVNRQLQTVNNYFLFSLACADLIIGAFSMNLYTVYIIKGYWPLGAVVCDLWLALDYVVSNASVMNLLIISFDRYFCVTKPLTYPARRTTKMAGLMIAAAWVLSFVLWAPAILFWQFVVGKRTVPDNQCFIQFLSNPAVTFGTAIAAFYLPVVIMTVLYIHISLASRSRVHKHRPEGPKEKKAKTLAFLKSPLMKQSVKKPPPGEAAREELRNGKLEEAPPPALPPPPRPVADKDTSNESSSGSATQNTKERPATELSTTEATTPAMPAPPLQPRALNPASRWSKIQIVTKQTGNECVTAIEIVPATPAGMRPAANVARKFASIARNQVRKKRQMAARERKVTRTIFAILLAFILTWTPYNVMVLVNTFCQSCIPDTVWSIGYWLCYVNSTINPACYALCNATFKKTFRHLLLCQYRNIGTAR
Assay: mAChR M4 cell-based functional assay (calcium flux, potentiation of EC20 acetylcholine response), hM4-Gqi5 CHO-K1 cells
Conditions: for Emax at 30 µM: CHO-K1, % ACh maximum at 30 μM, human M4, read-out: Emax; for EC50: hM4-Gqi5 CHO-K1 cells, calcium flux, PAM of EC20 acetylcholine, read-out: Human M4 EC50
Experimental: Human and rat M4 cDNAs, along with the chimeric G protein Gqi5, were transfected into Chinese hamster ovary (CHO-K1) cells purchased from the American Type Culture Collection using Lipofectamine2000. hM4-Gqi5 cells were grown in Ham's F-12 medium containing 10% heat-inactivated fetal bovine serum (FBS), 20 mM HEPES, 50 μg/mL G418 sulfate, and 500 μg/mL Hygromycin B. rM4-Gqi5 cells were grown in DMEM containing 10% heat-inactivated FBS, 20 mM HEPES, 400 μg/mL G418 sulfate, and 500 μg/mL Hygromycin B.
For high throughput measurement of agonist-evoked increases in intracellular calcium, CHO-K1 cells stably expressing muscarinic receptors were plated in growth medium lacking G418 and hygromycin at 15,000 cells/20 μL/well in Greiner 384-well black-walled, tissue culture (TC)-treated, clear-bottom plates (VWR). Cells were incubated overnight at 37° C. and 5% CO2. The next day, cells were washed using an ELX 405 (BioTek) with assay buffer; the final volume was then aspirated to 20 μL. Next, 20 μL of a 2.3 μM stock of Fluo-4/acetoxymethyl ester (Invitrogen, Carlsbad, CA), prepared as a 2.3 mM stock in DMSO and mixed in a 1:1 ratio with 10% (w/v) Pluronic F-127 and diluted in assay buffer, was added to the wells and the cell plates were incubated for 50 min at 37° C. and 5% CO2. Dye was removed by washing with the ELX 405 and the final volume was aspirated to 20 μL. Compound master plates were formatted in an 11 point concentration-response curve (CRC) format (1:3 dilutions) in 100% DMSO with a starting concentration of 10 mM using a BRAVO liquid handler (Agilent). Test compound CRCs were then transferred to daughter plates (240 nL) using the Echo acoustic plate reformatter (Labcyte, Sunnyvale, CA) and then diluted into assay buffer (40 μL) to a 2× stock using a Thermo Fisher Combi (Thermo Fisher Scientific, Waltham, MA).
Calcium flux was measured using the Functional Drug Screening System (FDSS) 6000 or 7000 (Hamamatsu Corporation, Tokyo, Japan) as an increase in the fluorescent static ratio. Compounds were applied to cells (20 μL, 2×) using the automated system of the FDSS at 2-4 seconds into the protocol and the data were collected at 1 Hz. At 144 seconds, 10 μL of an EC20 concentration of the muscarinic receptor agonist acetylcholine was added (5×), followed by the addition of 12 μL of an EC80 concentration of acetylcholine at the 230 second time point (5×). Agonist activity was analyzed as a concentration-dependent increase in calcium mobilization upon compound addition. Positive allosteric modulator activity was analyzed as a concentration-dependent increase in the EC20 acetylcholine response. Antagonist activity was analyzed as a concentration-dependent decrease in the EC80 acetylcholine response. Concentration-response curves were generated using a four-parameter logistical equation in XLFit curve fitting software (IDBS, Bridgewater, NJ) for Excel (Microsoft, Redmond, WA) or Prism (GraphPad Software, Inc., San Diego, CA).
Compounds were synthesized as described above. Activity (EC50 and Emax) was determined in the mAChR M4 cell-based functional assay as described above and the data are shown in Tables 2-4. The compound number corresponds to the compound numbers used in Table 1.

Emax at 30 µM	EC50	SMILES
85%	211 nM	Cc1c(N2CCc3ncc(Nc4ccccc4Cl)cc3C2)nn2cnnc2c1C [Compound 50, N-(2-chlorophenyl)-6-(7,8-dimethyl-[1,2,4]triazolo[4,3-b]pyridazin-6-yl)-7,8-dihydro-5H-1,6-naphthyridin-3-amine]
91%		Cc1c(N2CCc3ncc(C(=O)N4CCCC4)cc3C2)nn2cnnc2c1C [Compound 56, [6-(7,8-dimethyl-[1,2,4]triazolo[4,3-b]pyridazin-6-yl)-7,8-dihydro-5H-1,6-naphthyridin-3-yl]-pyrrolidin-1-yl-methanone]
60%	7750 nM	Cc1c(N2CCc3ncc(C(=O)NC4CC4)cc3C2)nn2cnnc2c1C [Compound 57, N-cyclopropyl-6-(7,8-dimethyl-[1,2,4]triazolo[4,3-b]pyridazin-6-yl)-7,8-dihydro-5H-1,6-naphthyridine-3-carboxamide]
51%		Cc1c(N2CCc3ncc(C(=O)N4CCOCC4)cc3C2)nn2cnnc2c1C [Compound 58, [6-(7,8-dimethyl-[1,2,4]triazolo[4,3-b]pyridazin-6-yl)-7,8-dihydro-5H-1,6-naphthyridin-3-yl]-morpholino-methanone]
89%	695 nM	Cc1c(N2CCc3ncc(C(=O)Nc4ccccc4F)cc3C2)nn2cnnc2c1C [Compound 59, 6-(7,8-dimethyl-[1,2,4]triazolo[4,3-b]pyridazin-6-yl)-N-(2-fluorophenyl)-7,8-dihydro-5H-1,6-naphthyridine-3-carboxamide]
82%	180 nM	Cc1ncc(-c2cnc3c(c2)CN(c2nn4cnnc4c(C)c2C)CC3)s1 [Compound 60, 5-[6-(7,8-dimethyl-[1,2,4]triazolo[4,3-b]pyridazin-6-yl)-7,8-dihydro-5H-1,6-naphthyridin-3-yl]-2-methyl-thiazole]
89%	171 nM	Cc1nc(C)c(-c2cnc3c(c2)CN(c2nn4cnnc4c(C)c2C)CC3)s1 [Compound 61, 5-[6-(7,8-dimethyl-[1,2,4]triazolo[4,3-b]pyridazin-6-yl)-7,8-dihydro-5H-1,6-naphthyridin-3-yl]-2,4-dimethyl-thiazole]
108%	92.9 nM	Cc1c(N2CCc3ncc(C(C)(C)O)cc3C2)nn2cnnc2c1C [Compound 62, 2-[6-(7,8-Dimethyl-[1,2,4]triazolo[4,3-b]pyridazin-6-yl)-7,8-dihydro-5H-1,6-naphthyridin-3-yl]propan-2-ol]
96%	788 nM	Cc1c(N2CCc3ncc(Nc4c(F)cccc4Cl)cc3C2)nn2cnnc2c1C [Compound 64, N-(2-chloro-6-fluoro-phenyl)-6-(7,8-dimethyl-[1,2,4]triazolo[4,3-b]pyridazin-6-yl)-7,8-dihydro-5H-1,6-naphthyridin-3-amine]
86%	219 nM	Cc1c(N2CCc3ncc(Nc4cccc(Cl)c4F)cc3C2)nn2cnnc2c1C [Compound 67, N-(3-chloro-2-fluoro-phenyl)-6-(7,8-dimethyl-[1,2,4]triazolo[4,3-b]pyridazin-6-yl)-7,8-dihydro-5H-1,6-naphthyridin-3-amine]

Further lines, the molecule ahead of its results:

SMILES	Emax at 30 µM	EC50
Cc1c(N2CCc3ncc(Nc4c(F)cccc4C#N)cc3C2)nn2cnnc2c1C [Compound 46, 2-[[6-(7,8-dimethyl-[1,2,4]triazolo[4,3-b]pyridazin-6-yl)-7,8-dihydro-5H-1,6-naphthyridin-3-yl]amino]-3-fluoro-benzonitrile]	64%	611 nM
Cc1c(N2CCc3ncc(Nc4c(F)cccc4F)cc3C2)nn2cnnc2c1C [Compound 47, N-(2,6-difluorophenyl)-6-(7,8-dimethyl-[1,2,4]triazolo[4,3-b]pyridazin-6-yl)-7,8-dihydro-5H-1,6-naphthyridin-3-amine]	80%	92.1 nM
Cc1ccc(Nc2cnc3c(c2)CN(c2nn4cnnc4c(C)c2C)CC3)c(F)c1 [Compound 48, 6-(7,8-dimethyl-[1,2,4]triazolo[4,3-b]pyridazin-6-yl)-N-(2-fluoro-4-methyl-phenyl)-7,8-dihydro-5H-1,6-naphthyridin-3-amine]	80%	147 nM
Cc1c(N2CCc3ncc(Nc4cccc(F)c4F)cc3C2)nn2cnnc2c1C [Compound 49, N-(2,3-difluorophenyl)-6-(7,8-dimethyl-[1,2,4]triazolo[4,3-b]pyridazin-6-yl)-7,8-dihydro-5H-1,6-naphthyridin-3-amine]	82%	82.4 nM
Cc1c(N2CCc3ncc(Nc4ccccc4N(C)C)cc3C2)nn2cnnc2c1C [Compound 51, N1-[6-(7,8-dimethyl-[1,2,4]triazolo[4,3-b]pyridazin-6-yl)-7,8-dihydro-5H-1,6-naphthyridin-3-yl]-N2,N2-dimethyl-benzene-1,2-diamine]	67%	402 nM
Cc1c(N2CCc3ncc(Nc4ccccc4C#N)cc3C2)nn2cnnc2c1C [Compound 52, 2-[[6-(7,8-dimethyl-[1,2,4]triazolo[4,3-b]pyridazin-6-yl)-7,8-dihydro-5H-1,6-naphthyridin-3-yl]amino]benzonitrile]	76%	381 nM
Cc1ccccc1Nc1cnc2c(c1)CN(c1nn3cnnc3c(C)c1C)CC2 [Compound 53, 6-(7,8-dimethyl-[1,2,4]triazolo[4,3-b]pyridazin-6-yl)-N-(o-tolyl)-7,8-dihydro-5H-1,6-naphthyridin-3-amine]	91%	86.1 nM
COc1ccccc1Nc1cnc2c(c1)CN(c1nn3cnnc3c(C)c1C)CC2 [Compound 54, 6-(7,8-dimethyl-[1,2,4]triazolo[4,3-b]pyridazin-6-yl)-N-(2-methoxyphenyl)-7,8-dihydro-5H-1,6-naphthyridin-3-amine]	90%	152 nM
CSc1ccccc1Nc1cnc2c(c1)CN(c1nn3cnnc3c(C)c1C)CC2 [Compound 55, 6-(7,8-dimethyl-[1,2,4]triazolo[4,3-b]pyridazin-6-yl)-N-(2-methylsulfanylphenyl)-7,8-dihydro-5H-1,6-naphthyridin-3-amine]	85%	241 nM
Cc1c(N2CCc3ncc(-c4cnn(Cc5ccccc5)c4)cc3C2)nn2cnnc2c1C [Compound 63, 3-(1-benzylpyrazol-4-yl)-6-(7,8-dimethyl-[1,2,4]triazolo[4,3-b]pyridazin-6-yl)-7,8-dihydro-5H-1,6-naphthyridine]	94%	262 nM
COc1cccc(Nc2cnc3c(c2)CN(c2nn4cnnc4c(C)c2C)CC3)c1F [Compound 65, 6-(7,8-dimethyl-[1,2,4]triazolo[4,3-b]pyridazin-6-yl)-N-(2-fluoro-3-methoxy-phenyl)-7,8-dihydro-5H-1,6-naphthyridin-3-amine]	104%	188 nM
Cc1c(N2CCc3ncc(Nc4cccc(C(F)(F)F)c4F)cc3C2)nn2cnnc2c1C [Compound 66, 6-(7,8-dimethyl-[1,2,4]triazolo[4,3-b]pyridazin-6-yl)-N-[2-fluoro-3-(trifluoromethyl)phenyl]-7,8-dihydro-5H-1,6-naphthyridin-3-amine]	95%	882 nM
